# Columns and labels:
# [1] = tested on: sleep-deprived healthy volunteers; assay: Safety/tolerability of a single dose in sleep-deprived healthy adults; format: in vivo, human; settings: Modafinil 300 mg; moderate intensity
# Method: (§1) During the day before dosing on Day 1, participants were administered the KSS at scheduled timepoints. A practice MWT session was performed on Day 1 treatment period 1 (only once during the entire study) to familiarize subjects with the procedures. Study drug was administered in the clinic in the evening on Day 1 of each treatment period. Subjects underwent the MWT and KSS at specified timepoints after the start of the infusion. Subjects were required to stay awake between the MWT tests. Following completion of the IV infusion on Day 2, subjects underwent an additional MWT test. When the final MWT test and cognitive testing were completed, subjects were allowed to sleep (recovery sleep) for approximately 6 hours. PSG recording was collected during this time. Subjects were discharged from the unit after completion on Day 2 with continuing actigraphy upon discharge (to begin on Day −6 before the next treatment period). The interval between each subsequent treatment period was at least 7 days to ensure that the subject's circadian rhythm had returned to a normal cycle. Subject's vital signs, including BP, were monitored during the dosing and testing period. Blood samples for determination of Compound A plasma concentrations were collected at specified timepoints on Days 1 and 2 of each treatment period. Subjects completed the Columbia-Suicide Severity Rating Scale (C-SSRS) during screening, before study drug administration, and before discharge on Day 2 of each treatment period.
# Safety endpoints: adverse events (AEs), physical examinations, vital signs, 12-lead electrocardiograms (ECGs), clinical laboratory evaluations (hematology, blood chemistry, and urinalysis), drug-liking visual analogue scale, and Profile of Mood States.
# [2] = tested on: sleep-deprived healthy volunteers; assay: Karolinska Sleepiness Scale (KSS) in sleep-deprived healthy volunteers; format: in vivo, human; settings: for KSS Sleepy/Alert LS Mean / KSS Sleepy/Alert LS Mean Difference vs Placebo Estimate: M: Modafinil 300 mg
# Method: as §1
# Secondary endpoints: • PK parameters calculated from plasma concentrations of Compound A. • Scores for sleepiness on the Karolinska Sleepiness Scale (KSS).
# The secondary efficacy endpoint was sleepiness/alertness as assessed by KSS at 14, 10, 6, and 2 hours predose (approximately between 7:45 AM to 7:45 PM); 2, 2.75, 4.75, 6.75, and 8.75 hours post infusion start (approximately between mid-night to 7 AM in the morning); and at 1.75 hours post infusion end. A higher value indicates more sleepiness, a lower value indicates more alertness. Prior to infusion, there were no statistically significant differences at any time point of observation in KSS score for Compound A 44 and 112 mg treatments when compared to placebo. […] On the average, for modafinil and Compound A 44 and 112 mg, there were about 1.6 to 3.7 points increase in the KSS postdose/the infusion start, relative to that prior to dosing during the daytime. However, for placebo, the increase in the average KSS is 4.9.
# [3] = DELTA: AVERAGE POST - AVERAGE PRIOR
# [4] = Modafinil 300 mg, 1.75 HOURS POST INFUSION END
# [5] = Modafinil 300 mg, 2 HOURS PREDOSE
# [6] = Modafinil 300 mg, 2.75 HOURS POST INFUSION START
# [7] = Modafinil 300 mg, 4.75 HOURS POST INFUSION START
# [8] = Modafinil 300 mg, 6 HOURS PREDOSE
# [9] = Modafinil 300 mg, 6.75 HOURS POST INFUSION START
# [10] = Modafinil 300 mg, 8.75 HOURS POST INFUSION START
# [11] = Modafinil 300 mg, 10 HOURS PREDOSE
# [12] = Modafinil 300 mg, 14 HOURS PREDOSE
smiles,measurement,setting,value
"NC(=O)C[S+]([O-])C(c1ccccc1)c1ccccc1 (stereo not shown) [Modafinil, modafinil, reference compound]","Drug-related TEAE of liver function test increased, number of subjects",[1],1 subject
same,KSS Sleepy/Alert LS Mean,[2]; 1.75 HOURS POST INFUSION END,7.16
same,KSS Sleepy/Alert LS Mean Difference vs Placebo Estimate,[2]; 1.75 HOURS POST INFUSION END,−0.99
same,KSS Sleepy/Alert LS Mean,[2]; 2 HOURS PREDOSE,3.32
same,KSS Sleepy/Alert LS Mean Difference vs Placebo Estimate,[2]; 2 HOURS PREDOSE,−0.58
same,KSS Sleepy/Alert LS Mean,[2]; 2.75 HOURS POST INFUSION START,3.69
same,KSS Sleepy/Alert LS Mean Difference vs Placebo Estimate,[2]; 2.75 HOURS POST INFUSION START,−3.16
same,KSS Sleepy/Alert LS Mean,[2]; 4.75 HOURS POST INFUSION START,4.32
same,KSS Sleepy/Alert LS Mean Difference vs Placebo Estimate,[2]; 4.75 HOURS POST INFUSION START,−3.83
same,KSS Sleepy/Alert LS Mean,[2]; 6 HOURS PREDOSE,2.58
same,KSS Sleepy/Alert LS Mean Difference vs Placebo Estimate,[2]; 6 HOURS PREDOSE,−0.22
same,KSS Sleepy/Alert LS Mean,[2]; 6.75 HOURS POST INFUSION START,5.79
same,KSS Sleepy/Alert LS Mean Difference vs Placebo Estimate,[2]; 6.75 HOURS POST INFUSION START,−2.71
same,KSS Sleepy/Alert LS Mean,[2]; 8.75 HOURS POST INFUSION START,6.69
same,KSS Sleepy/Alert LS Mean Difference vs Placebo Estimate,[2]; 8.75 HOURS POST INFUSION START,−1.65
same,KSS Sleepy/Alert LS Mean,[2]; 10 HOURS PREDOSE,2.32
same,KSS Sleepy/Alert LS Mean Difference vs Placebo Estimate,[2]; 10 HOURS PREDOSE,−0.18
same,KSS Sleepy/Alert LS Mean,[2]; 14 HOURS PREDOSE,2.79
same,KSS Sleepy/Alert LS Mean Difference vs Placebo Estimate,[2]; 14 HOURS PREDOSE,−0.26
same,KSS Sleepy/Alert LS Mean,"[2]; AVERAGE POST INFUSION START (2.75, 4.75, 6.75 AND 8.75 HOURS)",5.12
same,KSS Sleepy/Alert LS Mean,"[2]; AVERAGE PRIOR TO INFUSION START (14, 10, 6, 2 HOURS PREDOSE)",2.75
same,KSS Sleepy/Alert LS Mean,[2]; [3],2.37
same,KSS Sleepy/Alert LS Mean Difference vs Placebo Estimate,[2]; [3],−2.53
same,"Difference between average KSS score post and prior to infusion start, LS Mean (SE)",[2]; Modafinil 300 mg,2.37 (0.323)
same,KSS Max,[2]; [4],9
same,KSS Mean (SD),[2]; [4],7.2 (1.80)
same,KSS Median,[2]; [4],8.0
same,KSS Min,[2]; [4],3
same,KSS Max,[2]; [5],6
same,KSS Mean (SD),[2]; [5],3.3 (1.20)
same,KSS Median,[2]; [5],3.0
same,KSS Min,[2]; [5],1
same,KSS Max,[2]; [6],6
same,KSS Mean (SD),[2]; [6],3.7 (1.63)
same,KSS Median,[2]; [6],4.0
same,KSS Min,[2]; [6],1
same,KSS Max,[2]; [7],7
same,KSS Mean (SD),[2]; [7],4.3 (1.89)
same,KSS Median,[2]; [7],4.0
same,KSS Min,[2]; [7],1
same,KSS Max,[2]; [8],7
same,KSS Mean (SD),[2]; [8],2.6 (1.35)
same,KSS Median,[2]; [8],2.0
same,KSS Min,[2]; [8],1
same,KSS Max,[2]; [9],8
same,KSS Mean (SD),[2]; [9],5.8 (2.12)
same,KSS Median,[2]; [9],6.0
same,KSS Min,[2]; [9],2
same,KSS Max,[2]; [10],9
same,KSS Mean (SD),[2]; [10],6.7 (1.92)
same,KSS Median,[2]; [10],7.0
same,KSS Min,[2]; [10],3
same,KSS Max,[2]; [11],5
same,KSS Mean (SD),[2]; [11],2.3 (1.11)
same,KSS Median,[2]; [11],2.0
same,KSS Min,[2]; [11],1
same,KSS Max,[2]; [12],5
same,KSS Mean (SD),[2]; [12],2.8 (1.08)
same,KSS Median,[2]; [12],3.0
same,KSS Min,[2]; [12],1
same,KSS score,"[2]; Modafinil 300 mg, 1.75 hours post infusion end",7.16

# From patent US20220331303A1, “USE OF AN OREXIN 2 RECEPTOR AGONIST FOR THE TREATMENT OF EXCESSIVE SLEEPINESS” (Takeda Pharmaceutical Company Limited, priority 2019, published 2022)
